These results are taken from ChEMBL document CHEMBL1811891 (Bioorg Med Chem, 2011).

Structures are written as SMILES.

One series relates to Canis familiaris. Briefly: Cardiotoxicity in dog at 100 mg/kg, po after 14 days. The class given is toxicity, organism-based, Canis lupus familiaris. The note with it: in vivo, 336 h. Details: dose 100 mg/kg, route oral.
Series [1] can be described thus: Bioavailability in dog at 1 mg/kg, iv. Type of series: ADME, organism-based, Canis lupus familiaris. The note with it: in vivo.
The next series deals with Rhesus monkey. Briefly: Half life in monkey at 10 mg/kg, po. The class given is ADME, organism-based, Macaca mulatta. Set-up: dose 10 mg/kg, route oral. The note with it: in vivo.
Series [2] in a line: Bioavailability in monkey at 1 mg/kg, iv. Particulars: rhesus monkey, in vivo. The class given is ADME, organism-based, Macaca mulatta.
The nature of series [3]: Clearance in monkey at 1 mg/kg, iv. The class given is ADME, organism-based, Macaca mulatta. Details: dose 1 mg/kg, route intravenous. Particulars: rhesus monkey, in vivo.
Series [4] in a line: in vivo. Particulars: dog, po, 3 mg/kg.
The test system of a further series is Salmonella typhimurium. Briefly: Genotoxicity in Salmonella Typhimurium by Ames test. The class given is toxicity, organism-based. Particulars: salmonella enterica subsp. enterica serovar typhimurium.
Series [5] in a line: Half life in dog at 3 mg/kg, po. Particulars: in vivo. Details: dose 3 mg/kg, route oral. Type of series: ADME, organism-based, Canis lupus familiaris.
The nature of series [6]: Clearance in dog at 1 mg/kg, iv. The class given is ADME, organism-based, Canis lupus familiaris. Details: dose 1 mg/kg, route intravenous. The note with it: in vivo.
For the next series, the system named is Rattus norvegicus. The experiment in a line: Toxicity in rat at 100 mg/kg, po after 14 days. Type of series: organism-based. Details: dose 100 mg/kg, route oral. The note with it: in vivo, 336 h.
In series [7] the test system is Human immunodeficiency virus 1. The experiment in a line: microbe, parasite or virus in culture. Particulars: Human immunodeficiency virus 1, Ba-L.
Description: Antiviral activity against R5 tropic HIV1 Ba-L infected PBMC assessed as inhibition of viral p24 antigen expression
Series [8] can be described thus: Bioavailability in rat at 1 mg/kg, iv. The class given is ADME, organism-based. Particulars: in vivo.
Series [9] is described as follows: in vivo. The note with it: dog, plasma, po, 3 mg/kg.
A short description of series [10]: Clearance in rat at 1 mg/kg, iv. Type of series: ADME, organism-based. Details: dose 1 mg/kg, route intravenous. Particulars: in vivo.

In the case of `CCCCN1C(=O)[C@@H]([C@H](O)C2CCCCC2)NC(=O)C12CCN(Cc1ccc(Oc3ccc(C(=O)O)cc3)cc1)CC2.Cl` [APLAVIROC HYDROCHLORIDE], the Activity entry with Canis familiaris, in the series with Salmonella typhimurium and in the series on Rattus norvegicus was “Non-toxic” each time. Further, the bioavailability in series [1] came out at 12%; in [2], 4.6%; in series [8], 23%. Further, the t1/2 in the series on Rhesus monkey amounted to 24.4 h. Besides, the clearance in [3] was determined as 15 mL/min; in series [6] it was 33 mL/min; in series [10] it was 10 mL/min. The same compound returned a Cmax in the series “in vivo [4]” of 0.135 µg/mL. In series [5], this compound returned a half-life of 4.5 h. In [7], this compound displayed an IC90 of 0.012 µM. In “in vivo [9]”, this compound yielded an AUC of 0.189 µg·h/mL.
